Reference: patent publication US20210221848A1, “POLYMYXIN DERIVATIVES AND THEIR USE IN COMBINATION THERAPY TOGETHER WITH DIFFERENT ANTIBIOTICS” (priority 2014, published 2021)
≈ marks a conversion by molar mass, not a printed value. Like-named read-outs stand apart in the source and are kept apart here. Numbered stars: 1 amine (or outer) side, 2 acyl side, 3 side chain; on linkers, the order of the positions; unused ones are H or OH. Bridge positions count the residues as written; N and C are the ends. Square brackets hold non-standard residues; d marks the D form. Peptide text beside a SMILES is read from it. X7 = CC(C)CN([C@@H](CN)C(=O)[*:2])[*:1]; aThr = C[C@H](O)[C@H](N)C(=O)O; Dab = NCC[C@H](N)C(=O)O

Tests used:
[1] = system: E. coli strains with elevated MICs to Polymyxin B; experiment: MIC against strains with elevated MICs to Polymyxin B; format: cell-based, Escherichia coli; settings: Table 6D; for MIC E. coli 058: strain 058, elevated MIC to Polymyxin B; for MIC E. coli 059: strain 059, elevated MIC to Polymyxin B; for MIC E. coli 060: strain 060, elevated MIC to Polymyxin B; for MIC E. coli 061: strain 061, elevated MIC to Polymyxin B
Summary of the method: (§1)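 Reported MIC is the lower of duplicates agreeing within 2-fold, or the mode where compounds were tested repeatedly. Assays with greater than 2-fold duplicate variation were rejected. Colonies grown 18-24 hours on Mueller-Hinton agar were suspended to 0.5 McFarland as inoculum.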

K. pneumoniae [2] = system: K. pneumoniae
[3] = system: A. baumanii strains with elevated MICs to Polymyxin B; experiment: MIC against strains with elevated MICs to Polymyxin B; format: cell-based, Acinetobacter baumannii; settings: Table 6D; for MIC A. baumannii 053: strain 053, elevated MIC to Polymyxin B; for MIC A. baumannii 056: strain 056, elevated MIC to Polymyxin B; for MIC A. baumannii 068: strain 068, elevated MIC to Polymyxin B; for MIC A. baumannii 070: strain 070, elevated MIC to Polymyxin B
Summary of the method: as §1

[4] = system: P. aeruginosa strains with elevated MICs to Polymyxin B; experiment: as above; format: cell-based, Pseudomonas aeruginosa; settings: Table 6D; for MIC P. aeruginosa 065: strain 065, elevated MIC to Polymyxin B; for MIC P. aeruginosa 066: strain 066, elevated MIC to Polymyxin B; for MIC P. aeruginosa 067: strain 067, elevated MIC to Polymyxin B
Summary of the method: as §1

HK-2 cell line = experiment: In vitro renal cell toxicity assay (resazurin reduction)
Description: MICs were determined as described herein. HK-2 cell IC50 values were determined as described herein. Values are reported relative to Polymyxin B.

A. baumannii [5] = system: A. baumannii
E. coli [6] = system: E. coli
[7] = system: K. pneumoniae strains with elevated MICs to Polymyxin B; experiment: MIC against strains with elevated MICs to Polymyxin B; format: cell-based, Klebsiella pneumoniae; settings: Table 6D; for MIC K. pneumoniae 062: strain 062, elevated MIC to Polymyxin B; for MIC K. pneumoniae 063: strain 063, elevated MIC to Polymyxin B; for MIC K. pneumoniae 064: strain 064, elevated MIC to Polymyxin B; for MIC K. pneumoniae 655: strain 655, elevated MIC to Polymyxin B
Summary of the method: as §1

K. pneumoniae [8] = experiment: MIC in the presence of a fixed concentration (2 μg/mL) of Rifampicin; format: cell-based, Klebsiella pneumoniae; settings: Rifampicin 2 μg/mL, Table 5D
Description: (§2) The inoculum was prepared by making a direct suspension of isolated colonies (selected from an 18-24 hour Mueller-Hinton agar plate) adjusted to the 0.5 McFarland standard. […] The assays were performed in duplicate. […] In cases where the duplicate values varied by less than 2-fold, the lower of the two values is reported. If a variation of greater than 2-fold was observed, the assay was considered non-valid. Several of the compounds were subjected to multiple tests, and where this is the case, the MIC reflects the modal value obtained.

E. coli [9] = experiment: as above; format: cell-based, Escherichia coli; settings: Rifampicin 2 μg/mL, Table 5D
A. baumannii [10] = experiment: MIC in the presence of […] of rifampicin; format: cell-based, Acinetobacter baumannii; settings: for MIC in combination with Rifampicin, A. baumannii ATCC BAA-747: A. baumannii ATCC BAA-747, Table 5D; for MIC in combination with Rifampicin, A. baumannii NCTC 13424: A. baumannii NCTC 13424, Table 5D
Description: as §2

[11] = absence of a second agent, Table 6B

| Molecule | MIC E. coli 059 [1] | MIC E. coli 060 [1] | MIC E. coli 061 [1] | MIC, K. pneumoniae ATCC 4352 (K. pneumoniae [2]; sole activity, Table 6C) | MIC A. baumannii 053 [3] | MIC A. baumannii 056 [3] | MIC A. baumannii 068 [3] | MIC P. aeruginosa 066 [4] | MIC P. aeruginosa 067 [4] | HK-2 IC50 rel to PMB* (HK-2 cell line) | MIC, P. aeruginosa ATCC 27853 (P. aeruginosa; sole activity, Table 6C) | MIC, P. aeruginosa CCUG 59347 (P. aeruginosa; sole activity, Table 6C) | MIC, A. baumannii ATCC BAA-747 (A. baumannii [5]; sole activity, Table 6C) | MIC, A. baumannii NCTC 13424 (A. baumannii [5]; sole activity, Table 6C) | MIC, E. coli ATCC 25922 (E. coli [6]; sole activity, Table 6C) | MIC, E. coli NCTC 13441 (E. coli [6]; sole activity, Table 6C) | MIC K. pneumoniae 062 [7] | MIC K. pneumoniae 063 [7] | MIC K. pneumoniae 064 [7] | MIC, K. pneumoniae ATCC 4352 (K. pneumoniae [2]; [11]) | further results |
| --- | --- | --- | --- | --- | --- | --- | --- | --- | --- | --- | --- | --- | --- | --- | --- | --- | --- | --- | --- | --- | --- |
| trans-4-(2- methylpropyl) pyrrolidine-3- carbonyl-L-Thr- L-Dap-polymyxin B heptapeptide [Example D68] | 16 micrograms/mL | 8 micrograms/mL | 32 micrograms/mL | 0.125 micrograms/mL | >256 micrograms/mL | 128 micrograms/mL | 16 micrograms/mL | 16 micrograms/mL | >256 micrograms/mL | 5.3 | 0.5 micrograms/mL | 0.5 micrograms/mL | 0.25 micrograms/mL | 0.5 micrograms/mL | 0.25 micrograms/mL | 0.25 micrograms/mL | 64 micrograms/mL | 64 micrograms/mL | 16 micrograms/mL |  | MIC E. coli 058 [1]: 8 micrograms/mL; MIC P. aeruginosa 065 [4]: 16 micrograms/mL |
| 2-(2-aminoethyl)- undecanoyl polymyxin B nonapeptide [Example D26] | 0.5 micrograms/mL | 2 micrograms/mL | 4 micrograms/mL |  | 8 micrograms/mL | 4 micrograms/mL | 2 micrograms/mL | 1 micrograms/mL | 8 micrograms/mL |  |  |  |  |  |  |  | 2 micrograms/mL | 4 micrograms/mL | 0.5 micrograms/mL | 1 micrograms/mL | MIC in combination with Rifampicin, K. pneumoniae ATCC 4352 (K. pneumoniae [8]): 0.5 micrograms/mL; MIC in combination with Rifampicin, K. pneumoniae ATCC BAA-2146 (K. pneumoniae [8]): 4 micrograms/mL; MIC in combination with Rifampicin, E. coli ATCC 25922 (E. coli [9]): 0.25 micrograms/mL; MIC in combination with Rifampicin, E. coli NCTC 13441 (E. coli [9]): 1 micrograms/mL; MIC, K. pneumoniae ATCC BAA-2146 (K. pneumoniae [2]; [11]): 2 micrograms/mL; MIC A. baumannii 070 [3]: 2 micrograms/mL; MIC, P. aeruginosa ATCC 27853 (P. aeruginosa; [11]): 0.5 micrograms/mL; MIC, P. aeruginosa CCUG 59347 (P. aeruginosa; [11]): 0.5 micrograms/mL; MIC in combination with Rifampicin, A. baumannii ATCC BAA-747 (A. baumannii [10]): 2 micrograms/mL; MIC in combination with Rifampicin, A. baumannii NCTC 13424 (A. baumannii [10]): 1 micrograms/mL; MIC, A. baumannii ATCC BAA-747 (A. baumannii [5]; [11]): 0.5 micrograms/mL; MIC, A. baumannii NCTC 13424 (A. baumannii [5]; [11]): 2 micrograms/mL; MIC, E. coli ATCC 25922 (E. coli [6]; [11]): 0.5 micrograms/mL; MIC, E. coli NCTC 13441 (E. coli [6]; [11]): 2 micrograms/mL; MIC K. pneumoniae 655 [7]: 4 micrograms/mL |
| (S)-1-octyl-piperazine- 2-carbonyl polymyxin B nonapeptide [Example D28] | 0.5 micrograms/mL | 2 micrograms/mL | 4 micrograms/mL |  | 32 micrograms/mL | 16 micrograms/mL | 4 micrograms/mL | 4 micrograms/mL | 32 micrograms/mL |  |  |  |  |  |  |  | 8 micrograms/mL | 16 micrograms/mL | 2 micrograms/mL | 0.25 micrograms/mL | MIC in combination with Rifampicin, K. pneumoniae ATCC 4352 (K. pneumoniae [8]): 0.5 micrograms/mL; MIC in combination with Rifampicin, K. pneumoniae ATCC BAA-2146 (K. pneumoniae [8]): 2 micrograms/mL; MIC in combination with Rifampicin, E. coli ATCC 25922 (E. coli [9]): 1 micrograms/mL; MIC in combination with Rifampicin, E. coli NCTC 13441 (E. coli [9]): 0.5 micrograms/mL; MIC E. coli 058 [1]: 0.5 micrograms/mL; MIC, K. pneumoniae ATCC BAA-2146 (K. pneumoniae [2]; [11]): 0.5 micrograms/mL; MIC A. baumannii 070 [3]: 4 micrograms/mL; MIC P. aeruginosa 065 [4]: 0.5 micrograms/mL; MIC, P. aeruginosa ATCC 27853 (P. aeruginosa; [11]): 0.5 micrograms/mL; MIC, P. aeruginosa CCUG 59347 (P. aeruginosa; [11]): 1 micrograms/mL; MIC in combination with Rifampicin, A. baumannii ATCC BAA-747 (A. baumannii [10]): 1 micrograms/mL; MIC in combination with Rifampicin, A. baumannii NCTC 13424 (A. baumannii [10]): 1 micrograms/mL; MIC, A. baumannii ATCC BAA-747 (A. baumannii [5]; [11]): 0.25 micrograms/mL; MIC, A. baumannii NCTC 13424 (A. baumannii [5]; [11]): 1 micrograms/mL; MIC, E. coli ATCC 25922 (E. coli [6]; [11]): 0.125 micrograms/mL; MIC, E. coli NCTC 13441 (E. coli [6]; [11]): 0.125 micrograms/mL; MIC K. pneumoniae 655 [7]: 16 micrograms/mL |
| 2-aminomethyl- 4-methyl pentanoyl polymyxin E nonapeptide [Example D53] |  |  |  | 0.25 micrograms/mL |  |  |  |  |  | 18.2 | 0.5 micrograms/mL | 1 micrograms/mL | 1 micrograms/mL | 2 micrograms/mL | 1 micrograms/mL | 1 micrograms/mL |  |  |  |  | MIC, K. pneumoniae ATCC BAA-2146 (K. pneumoniae [2]; sole activity, Table 6C): 1 micrograms/mL |
| CC(C)CC1CNCC1C(=O)N[C@H](C(=O)N[C@@H](CCN)C(=O)N[C@H]1CCNC(=O)[C@H]([C@@H](C)O)NC(=O)[C@H](CCN)NC(=O)[C@H](CCN)NC(=O)[C@H](CC(C)C)NC(=O)[C@@H](Cc2ccccc2)NC(=O)[C@H](CCN)NC1=O)[C@H](C)O (single isomer, unassigned) [Example D39, trans-4-(2-methylpropyl) pyrrolidine-3-carbonyl polymyxin B nonapeptide] |  |  |  |  |  |  |  |  |  |  |  |  |  |  |  |  |  |  |  |  | HK-2 IC50 rel to PMB (HK-2 cell line): 5.4 |
| trans-4-(2- methylpropyl) pyrrolidine-3-carbonyl polymyxin B nonapeptide [Example D38] |  |  |  |  |  |  |  |  |  |  |  |  |  |  |  |  |  |  |  | 4 micrograms/mL | MIC, K. pneumoniae ATCC BAA-2146 (K. pneumoniae [2]; [11]): 8 micrograms/mL; HK-2 IC50 rel to PMB (HK-2 cell line): 6.3; MIC, P. aeruginosa ATCC 27853 (P. aeruginosa; [11]): 1 micrograms/mL; MIC, P. aeruginosa CCUG 59347 (P. aeruginosa; [11]): 2 micrograms/mL; MIC, A. baumannii ATCC BAA-747 (A. baumannii [5]; [11]): >8 micrograms/mL; MIC, A. baumannii NCTC 13424 (A. baumannii [5]; [11]): 2 micrograms/mL; MIC, E. coli ATCC 25922 (E. coli [6]; [11]): 8 micrograms/mL; MIC, E. coli NCTC 13441 (E. coli [6]; [11]): 8 micrograms/mL |
| CC(C)CN[C@@H](CN)C(=O)N[C@H](C(=O)N[C@@H](CCN)C(=O)N[C@H]1CCNC(=O)[C@H]([C@@H](C)O)NC(=O)[C@H](CCN)NC(=O)[C@H](CCN)NC(=O)[C@H](CC(C)C)NC(=O)[C@@H](Cc2ccccc2)NC(=O)[C@H](CCN)NC1=O)[C@H](C)O [Example D51, (S)-2-(2-methylpropylamino) 3-aminopropanoyl polymyxin B nonapeptide] (H-[X7][aThr][Dab][Dab][Dab][dF]L[Dab][Dab]T; lactam 4-C) |  |  |  |  |  |  |  |  |  |  |  |  |  |  |  |  |  |  |  |  | HK-2 IC50 rel to PMB (HK-2 cell line): 34; MIC (A. baumannii [5]): 1 µg/mL (≈ 0.905 µM); MIC (E. coli [6]): 0.5 µg/mL (≈ 0.452 µM) |
| (S)-1-(2- methylpropyl)- piperazine-2- carbonyl polymyxin E nonapeptide [Example D56] |  |  |  | 0.125 micrograms/mL |  |  |  |  |  | 22 | 0.5 micrograms/mL | 1 micrograms/mL | 0.5 micrograms/mL | 0.5 micrograms/mL | 0.25 micrograms/mL | 0.25 micrograms/mL |  |  |  |  | MIC, K. pneumoniae ATCC BAA-2146 (K. pneumoniae [2]; sole activity, Table 6C): 0.25 micrograms/mL |
